Test results from patent US11427556B2, “Urea derivatives as inhibitors of ASK1” (Hepagene Therapeutics (HK) Limited, priority 2017, dated 2022).

Each compound was assayed against T1, Recombinant human ASK1 kinase (Homo sapiens, UniProt Q99683) (assay: ASK1 kinase HTRF assay (HTRF KinEASE-STK, phosphorylation of biotinylated peptide substrate)). Settings: not given.
T1 construct: purchased Invitrogen Inc
T1 sequence (Q99683 1-1374): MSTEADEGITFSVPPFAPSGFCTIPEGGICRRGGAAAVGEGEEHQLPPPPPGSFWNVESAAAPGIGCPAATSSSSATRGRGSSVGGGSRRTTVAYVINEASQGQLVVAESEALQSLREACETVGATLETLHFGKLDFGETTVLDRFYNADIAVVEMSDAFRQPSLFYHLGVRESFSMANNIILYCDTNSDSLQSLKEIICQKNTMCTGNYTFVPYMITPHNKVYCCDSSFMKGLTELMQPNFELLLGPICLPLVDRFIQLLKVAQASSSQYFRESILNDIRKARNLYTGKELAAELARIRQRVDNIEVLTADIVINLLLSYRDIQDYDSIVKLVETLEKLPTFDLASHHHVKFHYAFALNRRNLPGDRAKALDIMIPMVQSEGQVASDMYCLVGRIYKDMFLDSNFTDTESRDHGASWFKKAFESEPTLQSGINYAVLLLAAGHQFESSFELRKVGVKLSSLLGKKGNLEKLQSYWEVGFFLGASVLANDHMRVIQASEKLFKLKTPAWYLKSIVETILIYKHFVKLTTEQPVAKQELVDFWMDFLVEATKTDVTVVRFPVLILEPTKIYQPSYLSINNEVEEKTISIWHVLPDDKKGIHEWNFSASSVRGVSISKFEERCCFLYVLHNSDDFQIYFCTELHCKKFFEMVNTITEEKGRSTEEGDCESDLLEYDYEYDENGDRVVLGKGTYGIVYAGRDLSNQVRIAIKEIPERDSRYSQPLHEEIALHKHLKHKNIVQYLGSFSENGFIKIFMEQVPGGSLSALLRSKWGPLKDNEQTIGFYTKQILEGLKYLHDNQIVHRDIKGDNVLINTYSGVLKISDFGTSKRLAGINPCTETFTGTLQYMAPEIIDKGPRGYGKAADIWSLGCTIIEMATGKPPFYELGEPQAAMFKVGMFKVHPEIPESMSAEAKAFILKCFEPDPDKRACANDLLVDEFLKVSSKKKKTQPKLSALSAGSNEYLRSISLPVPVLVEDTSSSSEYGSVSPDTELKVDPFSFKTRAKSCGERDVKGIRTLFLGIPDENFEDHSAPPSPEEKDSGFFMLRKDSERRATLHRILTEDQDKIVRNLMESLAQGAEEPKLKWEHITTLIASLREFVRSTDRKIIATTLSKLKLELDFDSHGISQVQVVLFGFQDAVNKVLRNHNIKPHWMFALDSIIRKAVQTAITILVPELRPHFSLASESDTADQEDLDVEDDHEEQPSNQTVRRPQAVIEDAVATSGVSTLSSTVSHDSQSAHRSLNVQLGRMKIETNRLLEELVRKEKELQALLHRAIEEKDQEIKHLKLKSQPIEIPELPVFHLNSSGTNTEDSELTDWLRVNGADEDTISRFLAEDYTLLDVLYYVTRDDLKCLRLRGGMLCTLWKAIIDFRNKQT
Format: biochemical
Description: Reagents: Recombinant human ASK1 kinase was from Invitrogen Inc. HTRF KinEASETM-STK S3 kit was obtained from Cisbio (Bedford, Mass.). All other reagents were of the highest grade commercially available.
Assay: The assay measures the phosphorylation level of a biotinylatd peptide substrate by the ASK1 kinase using HTRF detection. ASK1 kinase assay is based on HTRF KinEASETM-STK manual from Cisbio. Test compound, 1 uM STK-substrate-biotin, 3 nM of ASK1 kinase are incubated with 1*Kinase buffer with 5 mM MgCl2 and 1 mM DTT.
CC(C)n1cnnc1-c1cccc(NC(=O)Nc2cc(C(=O)N3CCOCC3)ccn2)n1 [Compound I-132] was tested, and the EC50 was < 0.05 µM. With C[C@H](CO)n1cnnc1-c1cccc(NC(=O)Nc2cc(C(=O)N3CCOCC3)ccn2)n1 [Compound I-133] the EC50 was < 0.05 µM. In the case of CC(C)n1cnnc1-c1cccc(NC(=O)Nc2cc(C(=O)N3CCC(=O)CC3)ccn2)n1 [Compound I-134], the EC50 is reported as < 0.05 µM. With C[C@H](CO)n1cnnc1-c1cccc(NC(=O)Nc2cc(C(=O)N3CCC(=O)CC3)ccn2)n1 [Compound I-135] the EC50 was < 0.05 µM. With CC(C)n1cnnc1-c1cccc(NC(=O)Nc2cc(C(=O)N3CCNCC3)ccn2)n1 [Compound I-139] the EC50 was < 0.05 µM. For C[C@H](CO)n1cnnc1-c1cccc(NC(=O)Nc2cc(C(=O)N3CCNCC3)ccn2)n1 [Compound I-140], the EC50 was < 0.05 µM. For CC(C)n1cnnc1-c1cccc(NC(=O)Nc2cc(C(=O)N3CCCC3)ccn2)n1 [Compound I-145], the EC50 was < 0.05 µM. With C[C@H](CO)n1cnnc1-c1cccc(NC(=O)Nc2cc(C(=O)N3CCCC3)ccn2)n1 [Compound I-146] the EC50 was < 0.05 µM.

Same assay, conditions: 3 nM ASK1 kinase, 1 uM STK-substrate-biotin, HTRF detection; read-out: EC50
In the case of CC(C)n1cnnc1-c1cccc(NC(=O)Nc2cc(C(=O)N3CCCc4ccccc43)ccn2)n1 [Compound I-123], the EC50 is reported as < 0.05 µM. For C[C@H](CO)n1cnnc1-c1cccc(NC(=O)Nc2cc(C(=O)N3CCCc4ccccc43)ccn2)n1 [Compound I-124], the EC50 was < 0.05 µM. In the case of CC(C)n1cnnc1-c1cccc(NC(=O)Nc2cc(C(=O)N3CCCC4CCCCC43)ccn2)n1 (stereo not shown) [Compound I-125], the EC50 is reported as < 0.05 µM. For C[C@H](CO)n1cnnc1-c1cccc(NC(=O)Nc2cc(C(=O)N3CCC[C@@H]4CCCC[C@H]43)ccn2)n1 [Compound I-126], the EC50 was < 0.05 µM. With CC(C)n1cnnc1-c1cccc(NC(=O)Nc2cc(C(=O)N3CC[C@@H]4CCCC[C@H]4C3)ccn2)n1 [Compound I-127] the EC50 was < 0.05 µM. CC(C)n1cnnc1-c1cccc(NC(=O)Nc2cc(C(=O)N3CCC4(CCCCC4)CC3)ccn2)n1 [Compound I-128] was tested, and the EC50 was < 0.05 µM. For C[C@H](CO)n1cnnc1-c1cccc(NC(=O)Nc2cc(C(=O)N3CCC4(CCCCC4)CC3)ccn2)n1 [Compound I-129], the EC50 was < 0.05 µM. With CC(C)n1cnnc1-c1cccc(NC(=O)Nc2cc(C(=O)N3CCC(N4CCOCC4)CC3)ccn2)n1 [Compound I-130] the EC50 was < 0.05 µM. With C[C@H](CO)n1cnnc1-c1cccc(NC(=O)Nc2cc(C(=O)N3CCC(N4CCOCC4)CC3)ccn2)n1 [Compound I-131] the EC50 was < 0.05 µM. In the case of CC(C)n1cnnc1-c1cccc(NC(=O)Nc2cc(C(=O)N3CCC(O)CC3)ccn2)n1 [Compound I-136], the EC50 is reported as < 0.05 µM. In the case of C[C@H](CO)n1cnnc1-c1cccc(NC(=O)Nc2cc(C(=O)N3CCC(O)CC3)ccn2)n1 [Compound I-137], the EC50 is reported as < 0.05 µM. For CC(C)n1cnnc1-c1cccc(NC(=O)Nc2cc(C(=O)N3CCC(C)(O)CC3)ccn2)n1 [Compound I-138], the EC50 was < 0.05 µM. For CC(C)n1cnnc1-c1cccc(NC(=O)Nc2cc(C(=O)N3CCN(C)CC3)ccn2)n1 [Compound I-141], the EC50 was < 0.05 µM. In the case of C[C@H](CO)n1cnnc1-c1cccc(NC(=O)Nc2cc(C(=O)N3CCN(C)CC3)ccn2)n1 [Compound I-142], the EC50 is reported as < 0.05 µM. In the case of CC(C)n1cnnc1-c1cccc(NC(=O)Nc2cc(C(=O)N3CCC(F)(F)CC3)ccn2)n1 [Compound I-143], the EC50 is reported as < 0.05 µM. C[C@H](CO)n1cnnc1-c1cccc(NC(=O)Nc2cc(C(=O)N3CCC(F)(F)CC3)ccn2)n1 [Compound I-144] was tested, and the EC50 was < 0.05 µM. CC(C)n1cnnc1-c1cccc(NC(=O)Nc2cc(C(=O)N3CCCCCC3)ccn2)n1 [Compound I-147] was tested, and the EC50 was < 0.05 µM. C[C@H](CO)n1cnnc1-c1cccc(NC(=O)Nc2cc(C(=O)N3CCCCCC3)ccn2)n1 [Compound I-148] was tested, and the EC50 was < 0.05 µM. With CC(C)n1cnnc1-c1cccc(NC(=O)Nc2cc(C(=O)N3C4CCCC3CC4)ccn2)n1 [Compound I-149] the EC50 was < 0.05 µM. C[C@H](CO)n1cnnc1-c1cccc(NC(=O)Nc2cc(C(=O)N3C4CCCC3CC4)ccn2)n1 [Compound I-150] was tested, and the EC50 was < 0.05 µM. With CC(C)n1cnnc1-c1cccc(NC(=O)Nc2cc(C(=O)NC3CCCCC3)ccn2)n1 [Compound I-151] the EC50 was < 0.05 µM. In the case of CC(C)n1cnnc1-c1cccc(NC(=O)Nc2cc(C(=O)Nc3ccccc3)ccn2)n1 [Compound I-152], the EC50 is reported as < 0.05 µM. C[C@H](CO)n1cnnc1-c1cccc(NC(=O)Nc2cc(C(=O)Nc3ccccc3)ccn2)n1 [Compound I-153] was tested, and the EC50 was < 0.05 µM. With CC(C)n1cnnc1-c1cccc(NC(=O)Nc2cc(C(=O)Nc3ccc4ccccc4c3)ccn2)n1 [Compound I-154] the EC50 was < 0.05 µM. CC(C)n1cnnc1-c1cccc(NC(=O)Nc2cc(C(=O)Nc3ccc(-c4ccccc4)cc3)ccn2)n1 [Compound I-155] was tested, and the EC50 was < 0.05 µM. In the case of CC(C)n1cnnc1-c1cccc(NC(=O)Nc2cc(C(=O)Nc3ccccc3F)ccn2)n1 [Compound I-156], the EC50 is reported as < 0.05 µM. With CC(C)n1cnnc1-c1cccc(NC(=O)Nc2cc(C(=O)Nc3cccc(F)c3)ccn2)n1 [Compound I-157] the EC50 was < 0.05 µM. In the case of CC(C)n1cnnc1-c1cccc(NC(=O)Nc2cc(C(=O)Nc3ccc(F)cc3)ccn2)n1 [Compound I-158], the EC50 is reported as < 0.05 µM. For C[C@H](CO)n1cnnc1-c1cccc(NC(=O)Nc2cc(C(=O)Nc3ccc(F)cc3)ccn2)n1 [Compound I-159], the EC50 was < 0.05 µM. In the case of CC(C)n1cnnc1-c1cccc(NC(=O)Nc2cc(C(=O)Nc3ccc(C(C)(C)C)cc3)ccn2)n1 [Compound I-160], the EC50 is reported as < 0.05 µM. In the case of CC(C)n1cnnc1-c1cccc(NC(=O)Nc2cc(C(=O)Nc3ccccn3)ccn2)n1 [Compound I-161], the EC50 is reported as < 0.05 µM. With CC(C)n1cnnc1-c1cccc(NC(=O)Nc2cc(C(=O)Nc3cccnc3)ccn2)n1 [Compound I-162] the EC50 was < 0.05 µM. With CC(C)n1cnnc1-c1cccc(NC(=O)Nc2cc(C(=O)Nc3ccncc3)ccn2)n1 [Compound I-163] the EC50 was < 0.05 µM. With C[C@H](CO)n1cnnc1-c1cccc(NC(=O)Nc2cc(C(=O)Nc3ccncc3)ccn2)n1 [Compound I-164] the EC50 was < 0.05 µM. For CC(C)n1cnnc1-c1cccc(NC(=O)Nc2ccc(N3CCCC3)cn2)n1 [Compound I-165], the EC50 was < 0.05 µM. CC(C)n1cnnc1-c1cccc(NC(=O)Nc2cccc(N3CCCC3)n2)n1 [Compound I-166] gave an EC50 of 0.05 to 0.5 µM. With CC(C)n1cnnc1-c1cccc(NC(=O)Nc2cc(N3CCCC3)ccn2)n1 [Compound I-167] the EC50 was < 0.05 µM. CC(C)n1cnnc1-c1cccc(NC(=O)Nc2ccc(-n3ccnc3)cn2)n1 [Compound I-168] was tested, and the EC50 was 0.05 to 0.5 µM. In the case of CC(C)n1cnnc1-c1cccc(NC(=O)Nc2ccc(-n3cnc(C4CC4)c3)cn2)n1 [Compound I-169], the EC50 is reported as < 0.05 µM. With CC(C)n1cnnc1-c1cccc(NC(=O)Nc2cc(-n3cnc(C4CC4)c3)ccn2)n1 [Compound I-170] the EC50 was < 0.05 µM. CC(C)n1cnnc1-c1cccc(NC(=O)Nc2cccc(-c3nncn3C(C)C)n2)n1 [Compound I-171] was tested, and the EC50 was 0.05 to 0.5 µM. With CC(C)n1cnnc1-c1cccc(NC(=O)Nc2ncccc2I)n1 [Compound I-172] the EC50 was < 0.05 µM. For CC(C)n1cnnc1-c1cccc(NC(=O)Nc2cc(I)ccn2)n1 [Compound I-173], the EC50 was < 0.05 µM. CC(C)n1cnnc1-c1cccc(NC(=O)Nc2ccc(I)cn2)n1 [Compound I-174] was tested, and the EC50 was < 0.05 µM. With CC(C)n1cnnc1-c1cccc(NC(=O)Nc2cc([N+](=O)[O-])ccn2)n1 [Compound I-175] the EC50 was < 0.05 µM. With CC(C)n1cnnc1-c1cccc(NC(=O)Nc2ncccc2Br)n1 [Compound I-176] the EC50 was < 0.05 µM. In the case of CC(C)n1cnnc1-c1cccc(NC(=O)Nc2cc(Br)ccn2)n1 [Compound I-177], the EC50 is reported as < 0.05 µM. CC(C)n1cnnc1-c1cccc(NC(=O)Nc2ccc(Br)cn2)n1 [Compound I-178] was tested, and the EC50 was < 0.05 µM. For CC(C)n1cnnc1-c1cccc(NC(=O)Nc2cccc(Br)n2)n1 [Compound I-179], the EC50 was < 0.05 µM. CC(C)n1cnnc1-c1cccc(NC(=O)Nc2ncccc2Cl)n1 [Compound I-180] was tested, and the EC50 was < 0.05 µM.
